The text below walks through data of US20020006942A1, “Methods of treating liver disorders and disorders associated with liver function” (priority 2000, published 2002).

Data set [1] deals with cytokine mRNAs (TNFα, TGF-β1, IL1β) in THP-1 cells. As to the kind of experiment: Cytokine mRNA expression by THP-1 cells (RNase protection assay). Particulars: 100 μM, 48 h. It is filed as cell-based, human. From the text:
Hepatic cytokine mRNAs were quantitated using RNase protection assays, as follows. In vitro transcribed [α-^32P]-UTP labeled -antisense cytokine probes were generated using cytokine multi-probe template kits: Mouse mCK-2 (catalog # 45002P) and Mouse mCK-3 (catalog #45003P) (PharMingen International) and a MAXIscript in vitro transcription kit (catalog #1314) using T7 RNA polymerase per manufacturer instructions. The radiolabeled probes were eluted through G25 Sephadex columns (Boehringer Mannheim) to remove unincorporated nucleotides. RNase protection assays were performed with HybSpeed RPA kits (catalog #1412) (Ambion Inc.) according to the manufacturers specifications. For each reaction, 20 fig of total RNA was hybridized to approximately 50,000 cpm of the antisense cytokine probes and digested with a mixture of RNase A and RNase T1. The protected RNA fragments were separated via a 5% denaturing acrylamide gel. PhosporImager (Molecular Dynamics) analysis was used to visualize the protected RNA fragments. […] Cells were harvested and polyA mRNA extracted, as described above. The content of human cytokines mRNAs were quantited by RNase protection assays, as described above except human template kits were used (Human hCK-2-catalog # 45032P and Human hCK-3-catalog # 45033P) (PharMingen International).

Data set [2] deals with CYP7A1 mRNA expression by rat hepatoma L35 cells. As to the kind of experiment: Direct treatment of L35 cells, CYP7A1 mRNA relative to β-actin. It counts as cell-based.
For another data set, the system named is CYP7A1. Particulars: bile acid infused; Heuman et al., 1989; cited from earlier work.
The next data set deals with hepatic CYP7A1 mRNA. As to the kind of experiment: Hepatic CYP7A1 mRNA relative to GAPDH in C57BL/6 mice on chow or bile acid-containing atherogenic diet. Particulars: chow-fed mice, 1 mg/ml daily by oral gavage, p=ns. It counts as in vivo, mouse.

Description for hepatic CYP7A1 mRNA: Female C3H/HeJ and [MUT] mice 10-12 weeks old (Jackson Laboratory, Bar Harbor, Me.) were housed in a room with a normal light cycle (lights on from 0600 to 1800) fed water ad libitum with either normal Purina breeder chow or ground Purina breeder chow supplemented with 20% olive oil, 2% cholesterol and 0.5% taurocholic acid (bile acid-contaning atherogenic diet) and water ad libitum. Mice were maintained on this diet for 3 weeks. After 3 weeks, mice were sacrificed at 0900. […] Mice were sacrificed at 0900 and blood was obtained for subsequent analysis. Livers were extracted for RNA, and polyA RNA was isolated, as described (Dueland, et al., 1993, J. Lipid.Res. 34:923-931; Dueland, et al., 1997, J. Lipid Res. 38:1445-1453). Poly A MRNA was blotted onto nitrocellulose and probed with ^32P-labeled cDNA encoding rat CYP7A1 and GAPDH (Duelandet al., 1993, J. Lipid Res. 34:923-931; Dueland, et al., 1997, J. Lipid Res. 38:1445-1453). The relative abundance of CYP7A1 mRNA to GAPDH mRNA was determined using Phosphorimager quantitation (Molecular Biosystems).

With `C[C@H](CCC(=O)O)[C@H]1CC[C@H]2[C@@H]3[C@H](O)C[C@@H]4C[C@H](O)CC[C@]4(C)[C@H]3CC[C@]12C` [CDCA, chenodeoxycholic acid], in data set [1], the “induction of TNFα, TGF-β1 and IL1β mRNAs by THP-1 cells” value is greater than 10 fold. Moreover, the “CYP7A1 expression by L35 cells” value in data set [2] (CDCA 100 μM added directly to L35 cells, 24 hours) was “unaffected”. In addition, in the data set with CYP7A1, the “ability to repress CYP7A1” value is recorded as “potent repressor”.
As to `C[C@H](CCC(=O)O)[C@H]1CC[C@H]2[C@@H]3[C@@H](O)C[C@@H]4C[C@H](O)CC[C@]4(C)[C@H]3CC[C@]12C` [UDCA, ursodeoxycholic acid], the “ability to repress CYP7A1” value with CYP7A1 is recorded as “does not repress”.
Consider `CN(CCOc1ccc(CC2SC(=O)NC2=O)cc1)c1ccccn1` (stereo not drawn) [rosiglitazone], for which, in the data set with hepatic CYP7A1 mRNA, the “decrease in the expression of CYP7A1” value is given as 30%.
As to TNFa, the “expression of CYP7A1 by L35 cells” value in data set [2] (human TNFa alone, 24 h) was “repressed”.
